Results taken from patent US20220151236A1, “NOVEL OXADIAZOLE COMPOUNDS FOR CONTROLLING OR PREVENTING PHYTOPATHOGENIC FUNGI” (PI INDUSTRIES LTD., priority 2019, published 2022).

test system: Phakopsora pachyrhizi; assay: Phakopsora pachyrhizi Test on Soybean (preventive activity, greenhouse); format: in vivo; settings: preventive spray on young Soybean plants, inoculated one day after treatment, rated 3, 7, 10 and 15 days after application, read-out: Efficacy (% control), disease severity compared to the untreated check
Experimental: Compounds were dissolved in 2% dimethyl sulfoxide/acetone and then mixed with water containing an emulsifier to a calibrated spray volume of 50 mL. This 50 mL spray solution was poured into spray bottles for further applications. To test the preventive activity of compounds, healthy young Soybean plants raised in the greenhouse were sprayed with the active compound preparation at the stated application rates inside the spray cabinets using hollow cone nozzles. One day after treatment, the plants were inoculated with a spore suspension containing 2×10^5 Phakopsora pachyrhizi conidia. The inoculated plants were then kept in a greenhouse chamber at 22-24° C. temperature and 80-90% relative humidity for disease expression. A visual assessment of the compound's performance was carried out by rating the disease severity (0-100% scale) on treated plants 3, 7, 10 and 15 days after application. Efficacy (% control) of the compounds was calculated by comparing the disease rating in the treatment with the one of the untreated control. The sprayed plants were also assessed for plant compatibility by recording symptoms like necrosis, chlorosis and stunting.

Row | Structure (SMILES) | pest or weed control at 500 ppm
1 | CCOC(=O)c1cn2cc(-c3noc(C(F)(F)F)n3)ccc2n1 [Compound 79, ethyl 6-(5-(trifluoromethyl)-1,2,4-oxadiazol-3-yl)imidazo[1,2-a]pyridine-2-carboxylate] | ≥ 70%
2 | O=C(NCc1ccccc1)c1cn2cc(-c3noc(C(F)(F)F)n3)ccc2n1 [Compound 23, N-benzyl-6-(5-(trifluoromethyl)-1,2,4-oxadiazol-3-yl)imidazo[1,2-a]pyridine-2-carboxamide] | ≥ 70%
3 | Fc1ccccc1SCc1cn2cc(-c3noc(C(F)(F)F)n3)ccc2n1 [Compound 106, 3-(2-(((2-fluorophenyl)thio)methyl)imidazo[1,2-a]pyridin-6-yl)-5-(trifluoromethyl)-1,2,4-oxadiazole] | ≥ 70%
4 | COCCNC(=O)c1cn2ccc(-c3noc(C(F)(F)F)n3)cc2n1 [Compound 34, N-(2-methoxyethyl)-7-(5-(trifluoromethyl)-1,2,4-oxadiazol-3-yl)imidazo[1,2-a]pyridine-2-carboxamide] | ≥ 70%
5 | O=C(NC1CCCC1)c1cn2cc(-c3noc(C(F)(F)F)n3)ccc2n1 [Compound 67, N-cyclopentyl-6-(5-(trifluoromethyl)-1,2,4-oxadiazol-3-yl)imidazo[1,2-a]pyridine-2-carboxamide] | ≥ 70%
6 | CNC(=O)c1cn2ccc(-c3noc(C(F)(F)F)n3)cc2n1 [Compound 13, N-methyl-7-(5-(trifluoromethyl)-1,2,4-oxadiazol-3-yl)imidazo[1,2-a]pyridine-2-carboxamide] | ≥ 70%
7 | O=C(NCc1ccc(C(F)(F)F)cc1)c1cn2cc(-c3noc(C(F)(F)F)n3)ccc2n1 [Compound 63, 6-(5-(trifluoromethyl)-1,2,4-oxadiazol-3-yl)-N-(4-(trifluoromethyl)benzyl)imidazo[1,2-a]pyridine-2-carboxamide] | ≥ 70%
8 | O=C(Nc1cccc(F)c1)c1cn2ccc(-c3noc(C(F)(F)F)n3)cc2n1 [Compound 4, N-(3-fluorophenyl)-7-(5-(trifluoromethyl)-1,2,4-oxadiazol-3-yl)imidazo[1,2-a]pyridine-2-carboxamide] | ≥ 70%
9 | N#Cc1ccc(NC(=O)c2cn3ccc(-c4noc(C(F)(F)F)n4)cc3n2)cc1 [Compound 15, N-(4-cyanophenyl)-7-(5-(trifluoromethyl)-1,2,4-oxadiazol-3-yl)imidazo[1,2-a]pyridine-2-carboxamide] | ≥ 70%
10 | Cc1ccc(NC(=O)c2cn3ccc(-c4noc(C(F)(F)F)n4)cc3n2)cc1 [Compound 3, N-(p-tolyl)-7-(5-(trifluoromethyl)-1,2,4-oxadiazol-3-yl)imidazo[1,2-a]pyridine-2-carboxamide] | ≥ 70%
11 | [O-][S+](Cc1cn2cc(-c3noc(C(F)(F)F)n3)ccc2n1)c1cccc(Cl)c1 (stereo not drawn) [Compound 127, 3-(2-(((3-chlorophenyl)sulfinyl)methyl)imidazo[1,2-a]pyridin-6-yl)-5-(trifluoromethyl)-1,2,4-oxadiazole] | ≥ 70%
12 | O=S(=O)(Cc1cn2ccc(-c3noc(C(F)(F)F)n3)cc2n1)c1ccccc1F [Compound 59, 3-(2-(((2-fluorophenyl)sulfonyl)methyl)imidazo[1,2-a]pyridin-7-yl)-5-(trifluoromethyl)-1,2,4-oxadiazole] | ≥ 70%
13 | Fc1ccc(SCc2cn3ccc(-c4noc(C(F)(F)F)n4)cc3n2)cc1 [Compound 48, 3-(2-(((4-fluorophenyl)thio)methyl)imidazo[1,2-a]pyridin-7-yl)-5-(trifluoromethyl)-1,2,4-oxadiazole] | ≥ 70%
14 | Cc1ccc(NC(=O)c2cn3cc(-c4noc(C(F)(F)F)n4)ccc3n2)cc1 [Compound 19, N-(p-tolyl)-6-(5-(trifluoromethyl)-1,2,4-oxadiazol-3-yl)imidazo[1,2-a]pyridine-2-carboxamide] | ≥ 70%
15 | O=C(c1cn2cc(-c3noc(C(F)(F)F)n3)ccc2n1)N1CCOCC1 [Compound 64, morpholino(6-(5-(trifluoromethyl)-1,2,4-oxadiazol-3-yl)imidazo[1,2-a]pyridin-2-yl)methanone] | ≥ 70%
16 | CNC(=O)c1cn2cc(-c3noc(C(F)(F)F)n3)ccc2n1 [Compound 21, N-methyl-6-(5-(trifluoromethyl)-1,2,4-oxadiazol-3-yl)imidazo[1,2-a]pyridine-2-carboxamide] | ≥ 70%
17 | O=S(=O)(Cc1cn2ccc(-c3noc(C(F)(F)F)n3)cc2n1)c1ccccc1 [Compound 58, 3-(2-((phenylsulfonyl)methyl)imidazo[1,2-a]pyridin-7-yl)-5-(trifluoromethyl)-1,2,4-oxadiazole] | ≥ 70%

Row | Structure (SMILES) | pest or weed control at 500 ppm
18 | O=C(NCc1ccc(Cl)cc1)c1cn2cc(-c3noc(C(F)(F)F)n3)ccc2n1 [Compound 77, N-(4-chlorobenzyl)-6-(5-(trifluoromethyl)-1,2,4-oxadiazol-3-yl)imidazo[1,2-a]pyridine-2-carboxamide] | ≥ 70%
19 | CC(C)CNC(=O)c1cn2ccc(-c3noc(C(F)(F)F)n3)cc2n1 [Compound 35, N-isobutyl-7-(5-(trifluoromethyl)-1,2,4-oxadiazol-3-yl)imidazo[1,2-a]pyridine-2-carboxamide] | ≥ 70%
20 | Fc1cccc(SCc2cn3cc(-c4noc(C(F)(F)F)n4)ccc3n2)c1 [Compound 104, 3-(2-(((3-fluorophenyl)thio)methyl)imidazo[1,2-a]pyridin-6-yl)-5-(trifluoromethyl)-1,2,4-oxadiazole] | ≥ 70%
21 | O=S(=O)(Cc1cn2cc(-c3noc(C(F)(F)F)n3)ccc2n1)c1cccc(F)c1 [Compound 120, 3-(2-(((3-fluorophenyl)sulfonyl)methyl)imidazo[1,2-a]pyridin-6-yl)-5-(trifluoromethyl)-1,2,4-oxadiazole] | ≥ 70%
22 | CC(C)CNC(=O)c1cn2cc(-c3noc(C(F)(F)F)n3)ccc2n1 [Compound 66, N-isobutyl-6-(5-(trifluoromethyl)-1,2,4-oxadiazol-3-yl)imidazo[1,2-a]pyridine-2-carboxamide] | ≥ 70%
23 | O=C(NCC1CC1)c1cn2cc(-c3noc(C(F)(F)F)n3)ccc2n1 [Compound 70, N-(cyclopropylmethyl)-6-(5-(trifluoromethyl)-1,2,4-oxadiazol-3-yl)imidazo[1,2-a]pyridine-2-carboxamide] | ≥ 70%
24 | FC(F)(F)c1nc(-c2ccn3cc(CSc4ccc(Cl)cc4)nc3c2)no1 [Compound 47, 3-(2-(((4-chlorophenyl)thio)methyl)imidazo[1,2-a]pyridin-7-yl)-5-(trifluoromethyl)-1,2,4-oxadiazole] | ≥ 70%
25 | CCC(=O)NCc1cn2cc(-c3noc(C(F)(F)F)n3)ccc2n1 [Compound 88, N-((6-(5-(trifluoromethyl)-1,2,4-oxadiazol-3-yl)imidazo[1,2-a]pyridin-2-yl)methyl)propionamide] | ≥ 70%
26 | CN(C)C(=O)c1cn2cc(-c3noc(C(F)(F)F)n3)ccc2n1 [Compound 25, N,N-dimethyl-6-(5-(trifluoromethyl)-1,2,4-oxadiazol-3-yl)imidazo[1,2-a]pyridine-2-carboxamide] | ≥ 70%
27 | COc1cccc(CNC(=O)c2cn3cc(-c4noc(C(F)(F)F)n4)ccc3n2)c1 [Compound 76, N-(3-methoxybenzyl)-6-(5-(trifluoromethyl)-1,2,4-oxadiazol-3-yl)imidazo[1,2-a]pyridine-2-carboxamide] | ≥ 70%
28 | O=C(NCc1ccc(Cl)c(Cl)c1)c1cn2ccc(-c3noc(C(F)(F)F)n3)cc2n1 [Compound 44, N-(3,4-dichlorobenzyl)-7-(5-(trifluoromethyl)-1,2,4-oxadiazol-3-yl)imidazo[1,2-a]pyridine-2-carboxamide] | ≥ 70%
29 | FC(F)(F)c1nc(-c2ccc3nc(CSc4ccccc4)cn3c2)no1 [Compound 101, 3-(2-((phenylthio)methyl)imidazo[1,2-a]pyridin-6-yl)-5-(trifluoromethyl)-1,2,4-oxadiazole] | ≥ 70%
30 | COc1cccc(CNC(=O)c2cn3ccc(-c4noc(C(F)(F)F)n4)cc3n2)c1 [Compound 41, N-(3-methoxybenzyl)-7-(5-(trifluoromethyl)-1,2,4-oxadiazol-3-yl)imidazo[1,2-a]pyridine-2-carboxamide] | ≥ 70%
31 | O=C(Nc1ccc(Cl)cc1F)c1cn2cc(-c3noc(C(F)(F)F)n3)ccc2n1 [Compound 26, N-(4-chloro-2-fluorophenyl)-6-(5-(trifluoromethyl)-1,2,4-oxadiazol-3-yl)imidazo[1,2-a]pyridine-2-carboxamide] | ≥ 70%
32 | CN(C)c1ccc(CNC(=O)c2cn3ccc(-c4noc(C(F)(F)F)n4)cc3n2)cc1 [Compound 43, N-(4-(dimethylamino)benzyl)-7-(5-(trifluoromethyl)-1,2,4-oxadiazol-3-yl)imidazo[1,2-a]pyridine-2-carboxamide] | ≥ 70%
33 | O=C(Nc1ccncc1)c1cn2ccc(-c3noc(C(F)(F)F)n3)cc2n1 [Compound 11, N-(pyridin-4-yl)-7-(5-(trifluoromethyl)-1,2,4-oxadiazol-3-yl)imidazo[1,2-a]pyridine-2-carboxamide] | ≥ 70%
